Laboratory results from patent publication US12310970B2, “Compounds and methods for treating or preventing anterior segment ocular disorders and/or retinal degenerations” (YALE UNIVERSITY, priority 2018, dated 2025).
Converted amounts (≈) assume the structure as drawn.

Experiments:
[1] = Solubility / dissolution in aqueous media; type: physicochemical
Method: 2.00 g HPBCD was dissolved in 4 mL deionized and filtered water by slow inversion/rotation. […] The volume was adjusted to 5.00 mL to provide 5.00 mL of a 40% clear solution by weight. To the 5.00 mL solution of 40% HPBCD was added 175 mg ciclopirox powder, and the vial was sealed and placed under slow rotary inversion to dissolve the solid. […] This 35 mg/mL solution was easily filtered through a 0.22 um syringe filter (MILLEX GV, PVDF membrane).
To the 5.00 mL solution of 40% HPBCD was added 175 mg (0.844 mmol, MW 207.3) ciclopirox powder and the vial sealed and placed under slow rotary inversion to dissolve the solid. […] This 35 mg/mL solution was easily filtered through a 0.22 um syringe filter (MILLEX GV, PVDF membrane).

[2] = in water; cited from earlier work

SMILES	solubility ([1]; aqueous buffer, pH 7.4 phosphate buffer (no saline))	concentration completely dissolved ([1]; in 40% HPBCD, after 1 hour mixing)	solubility limit [2]
Cc1cc(C2CCCCC2)n(O)c(=O)c1 [ciclopirox, 6-cyclohexyl-1-hydroxy-4-methyl-2(1H)-pyridone]	1000 µg/mL (≈ 4.82 mM)	35000 µg/mL	–
OC[C@H]1O[C@@H]2O[C@H]3[C@H](O)[C@@H](O)[C@@H](O[C@H]4[C@H](O)[C@@H](O)[C@@H](O[C@H]5[C@H](O)[C@@H](O)[C@@H](O[C@H]6[C@H](O)[C@@H](O)[C@@H](O[C@H]7[C@H](O)[C@@H](O)[C@@H](O[C@H]8[C@H](O)[C@@H](O)[C@@H](O[C@H]9[C@H](O)[C@@H](O)[C@@H](O[C@H]1[C@H](O)[C@H]2O)O[C@@H]9CO)O[C@@H]8CO)O[C@@H]7CO)O[C@@H]6CO)O[C@@H]5CO)O[C@@H]4CO)O[C@@H]3CO [gamma cyclodextrin]	–	–	about 23.2 mg/mL
